Data from patent US20090192204A1, “N-(2-THIAZOLYL)-AMIDE DERIVATIVES AS GSK-3 INHIBITORS” (NOSCIRA, S.A., priority 2006, published 2009).

Experiments:
SH-SY5Y cells = experiment: Cell survival by LDH release in SH-SY5Y cells; type: cell-based
Protocol: In addition to tau phosphorylation assays, quantification of cell death due to potential toxicity of compounds 1, 4, 5, 7, 8, 9, 10 and 11 described above is made by measuring LDH release (Roche, Cat 1 644 793). For the quantitative determination of cell survival, aliquots of the cell lysate are incubated with an equal volume of reaction mixture at room temperature for 20-30 min. The measure of absorbance is made in a microtiter plate reader with 490-492 nm filter (Cultek, Anthos 2010).
For compounds 4 and 5, the cell survival was measured at 24 hours treatment (see Table 2), and for compounds 1, 7, 8, 9, 10 and 11 was measured at 18 hours treatment (see Table 3), in SH-SY5Y cells. It is generally considered that a compound is considered toxic if less than 80% of the cells survive after treatment with a compound.

[1] = test system: phosphorylated human Tau [pS396]; experiment: Inhibition of tau phosphorylation in SHSY5Y cells (Tau [pS396] sandwich ELISA); type: cell-based; set-up: key: “NEG” means no tau phosphorylation inhibition was detected at the referred concentration of compound (I); “POS” means that at the referred concentration tau phosphorylation inhibition was detected; conditions: 18 h
Protocol: Human neuroblastoma SHSY5Y cells were seeded in the presence of Minimum Essential Medium/Nutrient Mixture F-12. One day later, cells are treated with samples for 18 h at 37° C. After treatment, cultures are washed with phosphate-buffered saline and lysed for 30 min at 4° C. in extraction buffer (10 mM Tris-HCl, pH 7.4, 100 mM NaCl, 1 mM EDTA, 2 mM Na3VO4, 1% Triton X-100, 10% glycerol, 0.1% SDS, 0.5% Sodium deoxycholate, 1 mM PMSF and a protease inhibitor cocktail (Roche, Cat 1 697 498)).
The quantitative determination of phosphorylated human Tau is made taking aliquots of the cell lysate and using a phosphorylation-specific antibody against Tau [pS396] in a sandwich ELISA (Biosource, Cat KHB7031). Tau phosphorylation is estimated by measuring the absorbance at 450 nm in a microtiter plate reader (Cultek, Anthos 2010).
The effect of the synthesized compounds according to examples 1-7 and that of another 6 compounds of formula (I) is determined at different final concentrations, namely 50, 100 and 200 μM. Not all the compounds of formula (I) were tested at all the concentrations. The results are indicated in Table 1 (see below) as “NEG” and “POS”, respectively meaning “negative” and “positive”; “NEG” means no tau phosphorylation inhibition was detected at the referred concentration of compound (I); “POS” means that at the referred concentration tau phosphorylation inhibition was detected.

[2] = molecular target: T1, Recombinant human glycogen synthase kinase 3β (Homo sapiens, UniProt P49841); experiment: GSK-3β inhibition (radiometric kinase assay, GS-2 peptide, 33P-ATP); type: biochemical; conditions: 0.5 h, remaining GSK-3 activity; for remaining activity at 25 µM: compound 25 μM; for remaining activity at 50 µM: compound 50 μM
T1 construct: purchased Upstate 14-306
Protocol: This assay is based on the protocol detailed by Upstate Cat. 14-306, making some slight modifications.
Recombinant human glycogen synthase kinase 3β is assayed in MOPS 11 mM pH7.4, EDTA 0.2 mM, EGTA 1.25 mM, MgCl2 26.25 mM and sodium orthovanadate 0.25 mM in the presence of 62.5 μM of Phospho-Glycogen Synthase Peptide-2 (GS-2) (TOCRIS, Cat. 1352), 0.5 μCi γ-^33P-ATP and unlabelled ATP (Sigma, A-9187) at a final concentration of 12.5 μM. After incubation for 30 minutes at 30° C., aliquots are spotted onto P81 phosphocellulose papers. Filters are washed four times for at least 10 minutes each with 1% phosphoric acid and counted with scintillation cocktail in a scintillation counter (PerkinElmer, Microbeta 1450). The activity of GSK-3 is tested at concentrations of 25 and 50 μM, in the presence of the compounds synthesized according to examples 1 to 7 and in the presence of another 6 compounds of formula (I).The results obtained are indicated in Table I (see below), in the form of percentage of GSK-3 activity.

T1 sequence (P49841 whole entry): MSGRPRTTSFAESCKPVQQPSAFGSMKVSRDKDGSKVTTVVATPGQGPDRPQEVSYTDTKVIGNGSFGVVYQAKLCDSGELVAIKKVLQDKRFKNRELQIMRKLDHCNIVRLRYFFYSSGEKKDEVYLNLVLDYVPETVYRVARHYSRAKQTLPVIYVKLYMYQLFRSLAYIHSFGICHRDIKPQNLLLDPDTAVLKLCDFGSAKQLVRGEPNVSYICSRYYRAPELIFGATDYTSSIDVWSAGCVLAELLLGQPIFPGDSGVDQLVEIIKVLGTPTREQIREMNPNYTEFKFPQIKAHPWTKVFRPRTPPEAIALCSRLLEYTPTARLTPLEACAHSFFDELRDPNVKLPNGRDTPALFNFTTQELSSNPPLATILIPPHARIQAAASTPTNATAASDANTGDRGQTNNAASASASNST

Row | SMILES | % of cell viability (SH-SY5Y cells; 50 μM, 18 hours treatment) | % of cell viability (SH-SY5Y cells; 100 μM, 18 hours treatment) | Tau phosphorylation inhibition in cells ([1]; 50 μM) | Tau phosphorylation inhibition in cells ([1]; 100 μM) | remaining activity at 25 µM [2] | remaining activity at 50 µM [2] | % of cell viability (SH-SY5Y cells; 10 μM, 24 hours treatment) | % of cell viability (SH-SY5Y cells; 25 μM, 24 hours treatment) | Tau phosphorylation inhibition in cells ([1]; 200 μM)
1 | COc1ccc2[nH]c(C(=O)Nc3ncc([N+](=O)[O-])s3)cc2c1 [Compound 10, 5-Methoxy-indole-2-carboxylic Acid (5-nitro-thiazol-2-yl)-amide] | 84.7 ± 2.7% | 90.6 ± 7.2% | POS | POS | 18.9% | 11% | – | – | –
2 | O=C(Nc1ncc([N+](=O)[O-])s1)c1n[nH]c2ccccc12 [Compound 11, 1H-Indazole-3-carboxylic Acid (5-nitro-thiazol-2-yl)-amide] | 95.3 ± 3.3% | 93.9 ± 5.6% | NEG | NEG | 34.8% | 18.2% | – | – | –
3 | O=C(Cc1c[nH]c2ccccc12)Nc1nccs1 [Compound 13] | – | – | – | – | 70.9% | 42.7% | – | – | –
4 | Cc1cnc(NC(=O)Cc2c[nH]c3ccccc23)s1 [Compound 12] | – | – | – | – | 49.1% | 37.1% | – | – | –
5 | O=C(CCc1c[nH]c2ccccc12)Nc1ncc([N+](=O)[O-])s1 [Compound 5] | – | – | POS | POS | 19.1% | 12.4% | 87.8 ± 3.8% | 86.1 ± 18.4% | POS
6 | O=C(Nc1ncc([N+](=O)[O-])s1)c1c[nH]c2ccccc12 [Compound 3] | – | – | – | – | 73.8% | 53.4% | – | – | –
7 | Cc1[nH]c2ccccc2c1CC(=O)Nc1ncc([N+](=O)[O-])s1 [Compound 9, 2-(2-Methyl-indol-3-yl)-N-(5-nitro-thiazol-2-yl)-acetamide] | 91.6 ± 5.9% | 90.8 ± 5.5% | POS | POS | 7.96% | 2.61% | – | – | –
8 | O=C(Cc1c[nH]c2ccccc12)Nc1ncc([N+](=O)[O-])s1 [Compound 4, 2-(Indol-3-yl)-N-(5-nitro-thiazol-2-yl)-acetamide] | – | – | NEG | POS | 6.29% | 8.51% | 91.7 ± 1.9% | 90 ± 3.7% | POS
9 | Cn1cc(CC(=O)Nc2ncc([N+](=O)[O-])s2)c2ccccc21 [Compound 8, 2-(1-Methyl-indol-3-yl)-N-(5-nitro-thiazol-2-yl)-acetamide] | 103 ± 7.7% | 85.5 ± 6.5% | POS | POS | 17.8% | 9.27% | – | – | –
10 | O=C(CCCc1c[nH]c2ccccc12)Nc1ncc([N+](=O)[O-])s1 [Compound 1] | 103.2 ± 17% | 101.0 ± 17% | NEG | NEG | 37.4% | 18.9% | – | – | NEG
11 | COc1ccc2[nH]cc(CC(=O)Nc3ncc([N+](=O)[O-])s3)c2c1 [Compound 7, 2-(5-Methoxy-indol-3-yl)-N-(5-nitro-thiazol-2-yl)-acetamide] | 99.8 ± 8.6% | 92.9 ± 11.1% | NEG | POS | 43.9% | 32.2% | – | – | –
12 | O=C(Cc1c[nH]c2ccccc12)Nc1ncc(Cl)s1 [Compound 6] | – | – | – | – | 29.4% | 14.6% | – | – | –
13 | O=C(CCCc1c[nH]c2ccccc12)Nc1nccs1 [Compound 2] | – | – | – | – | 59.6% | 39% | – | – | –
